# From paper PMC11826995, “Modulation of Protein–Protein Interactions with Molecular Glues in a Synthetic Condensate Platform” (Journal of the American Chemical Society, 2025)
# Square brackets hold non-standard residues; d marks the D form. Peptide text beside a SMILES is read from it. * marks the point of attachment. X1 = CCN(CC)c1ccc2c(-c3ccc(NC(=S)*)cc3C(=O)[O-])c3ccc(=[N+](CC)CC)cc-3oc2c1; pS = N[C@@H](COP(=O)(O)O)C(=O)O; AEA = NCCOCC(=O)O
# What was measured:
# [1] = target: T1, 14-3-3γ/ERRγ interaction (Homo sapiens, UniProt P61981); assay: Split luciferase assay inside condensates; type: biochemical; details: 250 pM LgBiT-ERRγ, 250 pM 14-3-3γ-SmBiT, 100 μM compound, 50 μM TCEP, overnight
# T1 construct: made in house; host or cells: E. coli BL21(DE3)
# T1 sequence (P61981 2-238 limits assumed): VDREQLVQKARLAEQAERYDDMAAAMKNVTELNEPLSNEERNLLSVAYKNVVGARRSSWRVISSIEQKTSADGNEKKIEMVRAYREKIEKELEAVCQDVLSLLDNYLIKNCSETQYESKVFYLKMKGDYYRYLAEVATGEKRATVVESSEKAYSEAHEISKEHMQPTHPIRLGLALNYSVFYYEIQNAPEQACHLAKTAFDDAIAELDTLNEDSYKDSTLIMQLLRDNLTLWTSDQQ
# [2] = target: 14-3-3γ/ERRγ (Homo sapiens, UniProt P61981); assay: pH-dependent fluorescence anisotropy titration of 14-3-3γ to FAM-labeled ERRγ peptide; type: binding; details: 100 µM compound
# Description: page 10: acetonitrile was used. […] Fluorescence anisotropy (FA) assays […] labeled peptides. […] (1 picture or pasted object on this page, not shown here) page 23: Table S5. […] compound R1. Data obtained from a fit using a four-parameter logistic model to determine KD or KDapp values as 95% confidence interval. The mean s were used for the calculation of the stabilization factor. pH DMSO: KD at 24 h (μM) Compound […] 24 h (μM) Stabilization factor […] 8.0 4.3-8.6 0.054-0.061 103 […] Figure S16. a) Schematic overview of mCherryEA structure and uptake into synthetic condensates. The […] 552 nm, with collection of emission between 562-700 nm in both settings . c) Confocal micrographs of condensates prepared at different pH (bulk pH values shown), with 500 nM of mCherryEA. Excitation was performed at 488 nm or 552 nm, with collection of emission between 562 -700 nm in both settings. d) Plot of the determined local pH values in the condensates relative to the buffer pH (bulk), as determined from the samples in pa nel c and the calibration curve. (1 picture or pasted object on this page, not shown here)
# [3] = system: 14-3-3γ/ERRγ interaction; set-up: method as in PMID 36926879; details: cited from earlier work
# [4] = target: T2, 14-3-3γ/ERRγ interaction (Homo sapiens, UniProt P61981); assay: Confocal microscopy of FITC-ERRγ recruitment to 14-3-3γ-loaded condensates; details: 100 µM compound, 100 nM FITC-ERRγ
# T2 sequence (P61981 1-247): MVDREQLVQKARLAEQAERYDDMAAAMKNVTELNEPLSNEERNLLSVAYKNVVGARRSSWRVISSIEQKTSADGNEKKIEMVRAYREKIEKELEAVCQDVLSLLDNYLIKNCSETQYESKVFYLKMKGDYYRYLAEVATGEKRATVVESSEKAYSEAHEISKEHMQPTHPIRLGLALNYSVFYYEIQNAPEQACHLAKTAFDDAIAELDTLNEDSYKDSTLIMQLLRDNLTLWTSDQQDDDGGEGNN
# [5] = target: T3, PPARγ/PRIPRAP (Homo sapiens, UniProt P37231); assay: Confocal microscopy of PRIPRAP coregulator recruitment to PPARγ-loaded condensates; type: biochemical; details: 100 nM PRIPRAP; for PRIPRAP recruitment to PPARγ-loaded condensates relative to DMSO control: 10 μM ligand, 400 nM PPARγ, overnight
# T3 construct: made in house; host or cells: bacterial culture with IPTG induction
# [6] = target: T4, PPARγ/PRIPRAP (Homo sapiens, UniProt P37231); assay: as above; type: biochemical; details: GW9662 10 μM + tesaglitazar 10 μM
# T4 construct: made in house; host or cells: bacterial culture with IPTG induction
# T4 sequence (P37231 235-505): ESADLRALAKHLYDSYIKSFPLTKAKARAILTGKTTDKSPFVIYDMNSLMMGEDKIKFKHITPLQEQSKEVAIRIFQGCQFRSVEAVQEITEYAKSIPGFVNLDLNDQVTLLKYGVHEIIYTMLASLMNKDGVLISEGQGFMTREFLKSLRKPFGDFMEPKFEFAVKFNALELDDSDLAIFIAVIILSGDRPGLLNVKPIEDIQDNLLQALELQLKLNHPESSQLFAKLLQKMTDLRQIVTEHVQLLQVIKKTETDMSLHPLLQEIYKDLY
# [7] = target: 14-3-3σ/CIP2A interaction (Homo sapiens, UniProt P31947); assay: Confocal microscopy of CIP2A client recruitment to 14-3-3σ-loaded synthetic condensates; type: biochemical; details: 100 nM CIP2A; for enhancement of CIP2A recruitment at 100 μM molecular glue: 100 μM compound
# [8] = target: T5, 14-3-3σ (Homo sapiens, UniProt P31947); assay: Fluorescence anisotropy protein titration of 14-3-3σ to HSPB6 peptide; type: binding
# T5 sequence (P31947 1-248): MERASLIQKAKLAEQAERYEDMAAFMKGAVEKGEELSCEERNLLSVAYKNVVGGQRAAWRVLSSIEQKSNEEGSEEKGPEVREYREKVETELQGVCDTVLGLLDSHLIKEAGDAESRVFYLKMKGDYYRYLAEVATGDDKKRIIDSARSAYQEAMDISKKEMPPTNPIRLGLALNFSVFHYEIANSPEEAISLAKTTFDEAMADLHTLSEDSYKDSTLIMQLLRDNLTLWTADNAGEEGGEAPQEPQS
# [9] = LC-MS assay for partitioning of small molecules between bulk and condensate phase; type: physicochemical; details: 100 µM FC, 2 h equilibration
# [10] = Partitioning of autofluorescent chiglitazar into condensates by confocal fluorescence; type: physicochemical; details: 10 µM, intensity inside condensates versus dilute solution
# [11] = system: PPARγ/PRIPRAP; assay: Fluorescence anisotropy titration of PPARγ to PRIPRAP peptide with PPAR ligands; type: binding; details: FA, PPARγ titrated to PRIPRAP peptide
# Description: to prevent aspecific hydrophobic interactions.
# 4-parameter logistic model . The resulting KD or KDapp obtained from the fit is shown as mean with the
# [12] = target: T6, PPARγ/MED1 DRIP-2 (Homo sapiens, UniProt P37231); assay: Tesaglitazar-dependent recruitment of MED1 DRIP-2 to PPARγ-loaded condensates; type: biochemical
# T6 construct: made in house; host or cells: bacterial culture with IPTG induction
# T6 sequence (P37231 238-503 limits assumed): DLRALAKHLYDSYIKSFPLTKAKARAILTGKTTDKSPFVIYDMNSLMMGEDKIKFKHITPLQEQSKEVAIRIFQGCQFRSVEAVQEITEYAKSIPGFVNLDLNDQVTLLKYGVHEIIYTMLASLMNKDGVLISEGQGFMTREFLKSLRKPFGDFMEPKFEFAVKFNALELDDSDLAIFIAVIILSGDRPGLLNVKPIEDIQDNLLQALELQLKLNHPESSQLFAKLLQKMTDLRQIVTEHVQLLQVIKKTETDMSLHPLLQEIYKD
# Description: (§1) The dose dependence of the PPI formation was studied using tesaglitazar (Figures 6g, S24 and S25). Here, we found a significant effect in PPI stabilization in the condensates at 10 μM compound. […].
# [13] = target: T7, PPARγ/EP300 (Homo sapiens, UniProt P37231); assay: Tesaglitazar-dependent recruitment of EP300 to PPARγ-loaded condensates; type: biochemical
# T7 construct: made in house; host or cells: bacterial culture with IPTG induction
# T7 sequence (P37231 238-503 limits assumed): T6 sequence (P37231 238-503 limits assumed)
# Description: as §1
# [14] = target: T8, 14-3-3σ/HSPB6 (Homo sapiens, UniProt P31947); assay: Competition of molecular glue with HSPB6 for 14-3-3σ binding in condensates (confocal microscopy); type: biochemical; details: 14-3-3σ-loaded condensates with HSPB6, overnight
# T8 sequence (P31947 1-248): T5 sequence (P31947 1-248)
# [15] = target: apo 14-3-3σ; set-up: method as in PMID 30996864; details: read-out: KD^II (intrinsic affinity for apo 14-3-3σ); cited from earlier work
compound,measurement,setting,value
CN(C)CCSSCCN(C)C(=O)c1cccc(C=O)c1 [Compound R1],bioluminescence signal in split luciferase assay inside condensates,[1],significantly enhanced bioluminescence signal
same,Stabilization factor,"[2]; pH 6.5, 24 h",3
same,Stabilization factor,"[2]; pH 7.0, 24 h",8
same,Stabilization factor,"[2]; pH 7.5, 24 h",40
same,Stabilization factor,"[2]; pH 8.0, 24 h",103
same,Stabilization factor,"[2]; pH 8.5, 24 h",152
same,SF100μM (stabilization factor at 100 μM compound concentration),[3],21
same,ERRγ recruitment to condensates over time,[4],reacts over time to yield ERRy recruitment
CN(C)CCSSCCN(C)C(=O)c1cc(Br)cc(C=O)c1 [Compound R3],bioluminescence signal in split luciferase assay inside condensates,[1],significantly enhanced bioluminescence signal
same,SF100μM (stabilization factor at 100 μM compound concentration),[3],37
O=C(Nc1ccccc1)c1cc([N+](=O)[O-])ccc1Cl [GW9662],PRIPRAP recruitment to PPARγ-loaded condensates relative to DMSO control,[5],did not influence PRIPRAP recruitment
same,effect of antagonist in codosing with tesaglitazar on PRIPRAP recruitment,[6],inhibited the stabilizing effect of tesaglitazar
C=CC(C)(C)OC[C@H]1O[C@H](O[C@@H]2C3=C(C(C)C)C[C@H](O)[C@]3(C)/C=C3/[C@@H](COC)CC[C@H]3[C@@H](C)[C@H]2O)[C@H](O)[C@@H](O)[C@@H]1O [FC-J],enhancement of CIP2A recruitment at 100 μM molecular glue,[7],differentiated performance between the FA assay and the condensates
CN(C)CCN(C)C(=O)c1ccc(C=O)c(F)c1 [Compound R5],bioluminescence signal in split luciferase assay inside condensates,[1],no change in the bioluminescence
same,SF100μM (stabilization factor at 100 μM compound concentration),[3],1
CCN(CC)c1ccc2c(-c3ccc(NC(=S)NCCOCC(=O)N[C@@H](Cc4c[nH]c5ccccc45)C(=O)N[C@@H](CC(C)C)C(=O)N[C@@H](CCCNC(=N)N)C(=O)N[C@@H](CCCNC(=N)N)C(=O)N[C@@H](C)C(=O)N[C@@H](COP(=O)(O)O)C(=O)N[C@@H](C)C(=O)N4CCC[C@H]4C(=O)N[C@@H](CC(C)C)C(=O)N4CCC[C@H]4C(=O)NCC(=O)N[C@@H](CC(C)C)C(=O)N[C@@H](CO)C(=O)N[C@@H](C)C(=O)N4CCC[C@H]4C(N)=O)cc3C(=O)[O-])c3ccc(=[N+](CC)CC)cc-3oc2c1 [HSPB6] ({X1-AEA}-WLRRA[pS]APLPGLSAP-NH2; C-terminus assumed),fold lower KD for 14-3-3σ than CIP2A in dilute solution,[8],> 10 fold
CN(C)CCSSCCN(C)C(=O)c1cccc(F)c1 [Compound R4],SF100μM (stabilization factor at 100 μM compound concentration),[3],5
"C=CC(C)(C)OCC1OC(OC2C3=C(C(C)COC(C)=O)CC(O)C3(C)C=C3C(COC)CCC3C(C)C2O)C(O)C(O)C1O (stereo not shown) [FC, Fusicoccin A]",partitioning coefficient to the condensate phase,[9],0.96 ± 0.02
chiglitazar,partitioning coefficient,[10],23 ± 4
C=CC(C)(C)OC[C@H]1O[C@H](O[C@@H]2C3=C([C@H](C)CN4CCCCC4)C[C@H](O)[C@]3(C)/C=C3/[C@@H](COC)CC[C@H]3[C@@H](C)[C@H]2O)[C@H](O)[C@@H](O)[C@@H]1O [FC-31],enhancement of CIP2A recruitment at 100 μM molecular glue,[7],significant enhancement of CIP2A recruitment
CN(C)CCSSCCN(C)C(=O)c1ccc(C=O)cc1 [Compound R2],bioluminescence signal in split luciferase assay inside condensates,[1],significantly enhanced bioluminescence signal
same,SF100μM (stabilization factor at 100 μM compound concentration),[3],10
CCO[C@@H](Cc1ccc(OCCc2ccc(OS(C)(=O)=O)cc2)cc1)C(=O)O [Tesaglitazar],"SF100 μM (stabilization factor, fold change in KD^app in the presence of the compound)",[11],19
same,PRIPRAP recruitment to PPARγ-loaded condensates relative to DMSO control,[5],significant recruitment of PRIPRAP
same,compound concentration with significant effect in PPI stabilization in the condensates,[5]; dose dependence,10 µM
same,ligand-mediated stabilization of PPARγ/MED1 DRIP-2 in condensates,[12],ligand-mediated stabilization of the PPI was observed
same,ligand-mediated stabilization of PPARγ/EP300 in condensates,[13],ligand-mediated stabilization of the PPI was observed
COCC1CCC2C1=CC1(C)C(=C(C(C)C)C3CCOC31)C(OC1OC3COC(C)(C)OC3C(O)C1O)C(O)C2C (stereo not shown) [FC-THF],enhancement of CIP2A recruitment at 100 μM molecular glue,[7],significant enhancement of CIP2A recruitment
C=CC(C)(C)OC[C@H]1O[C@H](O[C@@H]2C3=C([C@H](C)CNC(C)=O)C[C@H](O)[C@]3(C)/C=C3/[C@@H](COC)CC[C@H]3[C@@H](C)[C@H]2O)[C@H](O)[C@@H](O)[C@@H]1O [FC-NAc],enhancement of recruitment of CIP2A at 1 μM molecular glue,[7]; 1 μM compound,significant enhancement of recruitment
same,competition with HSPB6 for 14-3-3 binding in condensates,[14],significant competition with HSPB6
same,Kd,[15],10 µM
